These results are taken from patent US5314819A, “Protein having nitrile hydratase activity obtained from rhizobium, gene encoding the same, and a method for producing amides from nitriles via a transformant containing the gene” (Mitsubishi Kasei Corporation, priority 1992, dated 1994).

The subject of the first test is AM24 protein. In words: Evaluation of the nitrile hydratase activity of AM24 protein (2): substrate specificity. The note with it: activity defined as 100 when acrylonitrile is the substrate; 0.2% (v/v) nitrile solution, 25° C., 5 minutes, pH 7.0; amide measured by HPLC. Type of test: biochemical, Rhizobium sp. MCI2643. Here is the method:
One volume of the AM24 protein solution (its absorbance was 0.1 at 280 nm) and 4 volumes of 0.5M phosphate buffer, pH 7.0 were mixed together, to which were added 90 volumes of a 0.2% (v/v) solution of a nitrile compound for reaction at 25° C. for 5 minutes. After the reaction, 5 volumes of 1N HCl were added to terminate the reaction, and the resulting solution was then applied to an ODS column for HPLC, to measure the resulting amide compound. As the nitrile compound as the substrate, use was made of acrylonitrile, propionitrile, n-butyronitrile, isobutyronitrile, acetonitrile, chloroacetonitrile, malonamidenitrile, methacrylonitrile, 3-cyanopyridine, benzonitrile, and chrotononitrile.
The relative activity of each substrate is shown in Table 1, provided that the activity is defined as 100 when acrylonitrile is used as a reaction substrate.
As for `C=CC#N` [Acrylonitrile], the “Specific activity (%) (relative activity of each substrate)” value is given as 100%.
Same read-out and setting: for `C=C(C)C#N` [Methacrylonitrile] the value was 143%.
Same read-out and setting: for `N#CCC(N)=O` [Malonamidenitrile] the value was 143%; for `CC(C)C#N` [Isobutyronitrile], 28%.
Same read-out and setting: with `N#CCCl` [Chloroacetonitrile] the figure was 671%.
On to `CC#N` [Acetonitrile], for which the “Specific activity (%) (relative activity of each substrate)” value is recorded as 47%.
Regarding `CC=CC#N` [Chrotononitrile], the “Specific activity (%) (relative activity of each substrate)” value turned out to be 34%.
Still for that read-out and setting: for `CCCC#N` [n-Butyronitrile] the value was 152%; for `CCC#N` [Propionitrile], 59%.
The same measure, in the same setting: for `N#Cc1cccnc1` [3-Cyanopyridine] the value was 9%; for `N#Cc1ccccc1` [Benzonitrile], 251%.

In the next test the test system is transformant containing the pEAM24X1. In words: Conversion of a nitrile into an amide using the transformant containing pEAM24X1. In kind it is cell-based, Escherichia coli DH5 α. The settings on record: transformant cultured with CoCl2 and IPTG; aqueous 7% acrylonitrile solution, 30° C., 1 hour; HPLC. As for the experimental part: The transformant containing the pEAM24X1 obtained in Example 7 was cultured overnight at 27° C. in 10 ml of an LB culture medium (containing 50 μg/ml Ampicillin). […] The strain were centrifuged and harvested, washed once in physiological saline, and suspended in 1.6 ml of a phosphate buffer (pH 7.0, 0.1M). 0.32 ml of the suspension was sampled, followed by mixing with 80 μl of an aqueous 7% acrylonitrile solution for reaction at 30° C. for 1 hour. After the termination of the reaction by addition of HCl as described before, the acrylamide and acrylonitrile concentrations in the reaction solution were determined by HPLC.
Thus cobalt is essential for nitrile hydratase activity.
As for `C=CC#N` [Acrylonitrile], the “conversion of acrylonitrile to acrylamide” value is given as “complete”.

The same test, now with this note: transformant harboring pEAM24X1 cultured in a culture medium without cobalt.
Take `C=CC#N` [Acrylonitrile]: the “acrylamide in the reaction solution after termination of the reaction” value is recorded as “no acrylamide was detected”.
